The results in this text go back to PubChem BioAssay AID1259407 (Chemical Carcinogenesis Research Information System (CCRIS), 2018).

The structures appear in SMILES notation. Calls of active or inactive are those of the source. How the calls were made is not given here.

In the data set the test system is CCRIS mutagenicity, Ames/micronucleus/aberration tests. Nature of the data set: CCRIS mutagenicity studies.
Where [1] appears, read: Test System: AMES SALMONELLA TYPHIMURIUM, Strain/Indicator: TA98, Metabolic Activation: NONE, Method: STANDARD PLATE.
Setting [2] is: Test System: AMES SALMONELLA TYPHIMURIUM, Strain/Indicator: TA100, Metabolic Activation: NONE, Method: STANDARD PLATE.
The mark [3] stands for this setting: Test System: AMES SALMONELLA TYPHIMURIUM, Strain/Indicator: TA1535, Metabolic Activation: NONE, Method: STANDARD PLATE.
Setting [4] is: Test System: MOUSE LYMPHOMA, Strain/Indicator: L5178Y (TK+/TK-), Metabolic Activation: NONE, Method: SUSPENSION/PLATE.

On to `C[Si](C)(C)N[Si](C)(C)C`, for which the mutagenic call is, setting by setting: (Test System: AMES SALMONELLA TYPHIMURIUM, Strain/Indicator: TA98, Metabolic Activation: HAMSTER, LIVER, S-9, AROCLOR 1254 (10%), Method: STANDARD PLATE) “inactive; negative”; under setting [1], “inactive; negative”; (Test System: AMES SALMONELLA TYPHIMURIUM, Strain/Indicator: TA98, Metabolic Activation: RAT, LIVER, S-9, AROCLOR 1254 (10%), Method: STANDARD PLATE) “inactive; negative”; (Test System: AMES SALMONELLA TYPHIMURIUM, Strain/Indicator: TA100, Metabolic Activation: HAMSTER, LIVER, S-9, AROCLOR 1254 (10%), Method: STANDARD PLATE) “inactive; negative”; under setting [2], “inactive; negative”; (Test System: AMES SALMONELLA TYPHIMURIUM, Strain/Indicator: TA100, Metabolic Activation: RAT, LIVER, S-9, AROCLOR 1254 (10%), Method: STANDARD PLATE) “inactive; negative”. Moreover, the mutagenic call was “inactive; negative” (Test System: AMES SALMONELLA TYPHIMURIUM, Strain/Indicator: TA1535, Metabolic Activation: HAMSTER, LIVER, S-9, AROCLOR 1254 (10%), Method: STANDARD PLATE); “inactive; negative” under setting [3]; “inactive; negative” (Test System: AMES SALMONELLA TYPHIMURIUM, Strain/Indicator: TA1535, Metabolic Activation: RAT, LIVER, S-9, AROCLOR 1254 (10%), Method: STANDARD PLATE); “inactive; negative” (Test System: AMES SALMONELLA TYPHIMURIUM, Strain/Indicator: TA1537, Metabolic Activation: HAMSTER, LIVER, S-9, AROCLOR 1254 (10%), Method: STANDARD PLATE); “inactive; negative” (Test System: AMES SALMONELLA TYPHIMURIUM, Strain/Indicator: TA1537, Metabolic Activation: NONE, Method: STANDARD PLATE); “inactive; negative” (Test System: AMES SALMONELLA TYPHIMURIUM, Strain/Indicator: TA1537, Metabolic Activation: RAT, LIVER, S-9, AROCLOR 1254 (10%), Method: STANDARD PLATE). Further, the mutagenic call was “inactive; negative” (Test System: AMES SALMONELLA TYPHIMURIUM, Strain/Indicator: TA1538, Metabolic Activation: HAMSTER, LIVER, S-9, AROCLOR 1254 (10%), Method: STANDARD PLATE); “inactive; negative” (Test System: AMES SALMONELLA TYPHIMURIUM, Strain/Indicator: TA1538, Metabolic Activation: NONE, Method: STANDARD PLATE); “inactive; negative” (Test System: AMES SALMONELLA TYPHIMURIUM, Strain/Indicator: TA1538, Metabolic Activation: RAT, LIVER, S-9, AROCLOR 1254 (10%), Method: STANDARD PLATE); “inactive; negative. reevaluation of results: inconclusive” under setting [4].

For the compound `Cc1cccc(C)c1N=Nc1c(O)ccc2ccccc12`, the mutagenic call under setting [1] is “inactive; negative”; the mutagenic call (Test System: AMES SALMONELLA TYPHIMURIUM, Strain/Indicator: TA98, Metabolic Activation: RAT, LIVER, S-9, Method: STANDARD PLATE) was “inactive; negative”; the mutagenic call under setting [2] was “inactive; negative”; the mutagenic call (Test System: AMES SALMONELLA TYPHIMURIUM, Strain/Indicator: TA100, Metabolic Activation: RAT, LIVER, S-9, Method: STANDARD PLATE) is “inactive; negative”.

Turning to `C(CC1CO1)C1CO1` (centres undefined), the mutagenic call is “active; positive” under setting [2] and “active; positive” under setting [3].

For the compound `C=CC(C)(O)CCC=C(C)C` (centres undefined), the mutagenic call was “inactive; negative” (Test System: AMES SALMONELLA TYPHIMURIUM, Strain/Indicator: TA97, Metabolic Activation: NONE, Method: PREINCUBATION); “inactive; negative” (Test System: AMES SALMONELLA TYPHIMURIUM, Strain/Indicator: TA97, Metabolic Activation: RAT, LIVER, S-9, AROCLOR 1254, Method: PREINCUBATION); “inactive; negative” (Test System: AMES SALMONELLA TYPHIMURIUM, Strain/Indicator: TA102, Metabolic Activation: NONE, Method: PREINCUBATION); “inactive; negative” (Test System: AMES SALMONELLA TYPHIMURIUM, Strain/Indicator: TA102, Metabolic Activation: RAT, LIVER, S-9, AROCLOR 1254, Method: PREINCUBATION); “inactive; negative” (Test System: E. coli, Strain/Indicator: WP2 IC185 trpE65, Metabolic Activation: None, Method: Plate incorporation (Test material solvent: ethanol)); “inactive; negative” (Test System: E. coli, Strain/Indicator: WP2 IC202 trpE65 oxyR/pKM101, Metabolic Activation: None, Method: Plate incorporation (Test material solvent: ethanol)).

Regarding `CC(C)N(CC(O)COc1cccc2ccccc12)N=O` (centres undefined), the mutagenic call (Test System: UDS HUMAN HEPATOCYTES, Strain/Indicator: THY INCORP, Metabolic Activation: NONE, Method: AUTORADIOGRAPHY) is “active; positive” and the mutagenic call (Test System: UDS RAT HEPATOCYTES, Strain/Indicator: THY INCORP, Metabolic Activation: NONE, Method: AUTORADIOGRAPHY) is “active; positive”.

On to `Cc1ccc(NC(=O)CBr)cc1`, for which the mutagenic call (Test System: AMES SALMONELLA TYPHIMURIUM, Strain/Indicator: TA100, Metabolic Activation: MOUSE, LIVER, S-9, AROCLOR 1254, Method: STANDARD PLATE) was “inactive; negative” and the mutagenic call under setting [2] was “inactive; negative”.

As for `Nc1ccc2nc3ccccc3cc2c1`, the mutagenic call reads like this: (Test System: AMES SALMONELLA TYPHIMURIUM, Strain/Indicator: TA1535, Metabolic Activation: NONE, Method: PREINCUBATION) “inactive; negative”; (Test System: AMES SALMONELLA TYPHIMURIUM, Strain/Indicator: TA1535, Metabolic Activation: RAT, LIVER, S-9, TETRACHLOROBIPHENYL, Method: PREINCUBATION) “active; positive”; (Test System: AMES SALMONELLA TYPHIMURIUM, Strain/Indicator: TA1537, Metabolic Activation: NONE, Method: PREINCUBATION) “active; positive”; (Test System: AMES SALMONELLA TYPHIMURIUM, Strain/Indicator: TA1537, Metabolic Activation: RAT, LIVER, S-9, TETRACHLOROBIPHENYL, Method: PREINCUBATION) “active; positive”; (Test System: AMES SALMONELLA TYPHIMURIUM, Strain/Indicator: TA1538, Metabolic Activation: NONE, Method: PREINCUBATION) “inactive; negative”; (Test System: AMES SALMONELLA TYPHIMURIUM, Strain/Indicator: TA1538, Metabolic Activation: RAT, LIVER, S-9, TETRACHLOROBIPHENYL, Method: PREINCUBATION) “active; positive”. Further, the mutagenic call was “inactive; negative” (Test System: AMES SALMONELLA TYPHIMURIUM, Strain/Indicator: TA1975, Metabolic Activation: RAT, LIVER, S-9, TETRACHLOROBIPHENYL, Method: PREINCUBATION); “inactive; negative” (Test System: AMES SALMONELLA TYPHIMURIUM, Strain/Indicator: TA1977, Metabolic Activation: NONE, Method: PREINCUBATION); “active; positive” (Test System: AMES SALMONELLA TYPHIMURIUM, Strain/Indicator: TA1977, Metabolic Activation: RAT, LIVER, S-9, TETRACHLOROBIPHENYL, Method: PREINCUBATION); “active; positive” (Test System: AMES SALMONELLA TYPHIMURIUM, Strain/Indicator: TA1978, Metabolic Activation: RAT, LIVER, S-9, TETRACHLOROBIPHENYL, Method: PREINCUBATION).

Regarding `O[C@H]1c2cccc3ccc4cccc(c4c23)[C@@H]1O`, the mutagenic call runs as follows: (Test System: AMES SALMONELLA TYPHIMURIUM, Strain/Indicator: TA98, Metabolic Activation: NONE, Method: PREINCUBATION) “inactive; negative”; (Test System: AMES SALMONELLA TYPHIMURIUM, Strain/Indicator: TA98, Metabolic Activation: RAT, LIVER, S-9, AROCLOR 1254, Method: PREINCUBATION) “inactive; negative”; (Test System: AMES SALMONELLA TYPHIMURIUM, Strain/Indicator: TA100, Metabolic Activation: NONE, Method: PREINCUBATION) “inactive; negative”; (Test System: AMES SALMONELLA TYPHIMURIUM, Strain/Indicator: TA100, Metabolic Activation: RAT, LIVER, S-9, AROCLOR 1254, Method: PREINCUBATION) “inactive; negative”.

With `CC1(C)C[C@H]2C=C(C=O)[C@]3(C=O)C[C@]3(C)[C@H]2C1`, the mutagenic call by setting is: under setting [1], “active; positive”; under setting [2], “active; positive”; (Test System: AMES SALMONELLA TYPHIMURIUM, Strain/Indicator: TA2637, Metabolic Activation: NONE, Method: STANDARD PLATE) “active; positive”; (Test System: CHINESE HAMSTER V-79, Strain/Indicator: V-79/6-THIOGUANINE (HGPRT), Metabolic Activation: NONE) “active; positive”.

On to `CCCCCCCCCCOC[N+](C)(C)CCCCCCCC`, for which the mutagenic call runs as follows: (Test System: BACILLUS SUBTILIS, Strain/Indicator: H17/REC, Metabolic Activation: NONE, Method: STANDARD PLATE) “inactive; negative”; (Test System: BACILLUS SUBTILIS, Strain/Indicator: M45, Metabolic Activation: NONE, Method: STANDARD PLATE) “inactive; negative”.

For the compound `CC/C=C\C#N`, the mutagenic call under setting [4] was “active; positive. reevaluation of results: positive” and the mutagenic call (Test System: Mouse lymphoma, Strain/Indicator: L5178Y (tk+/tk-), Metabolic Activation: Rat, Liver, S-9, Aroclor 1254, Method: Suspension/plate) is “active; positive”.
